Data reported in patent US9855320B2, “Angiogenin for treatment of glaucoma” (CHUNG-ANG UNIVERSITY INDUSTRY-ACADEMIC COOPERATION …, priority 2011, dated 2018).

Experiments:
CD11b = experiment: Reverse transcription polymerase chain reaction of CD11b in retinal tissue, chronic intraocular pressure increase model; assay type: in vivo; conditions: seventh day after episcleral venous electric ablation, compared to the control and the normal rat group
Experimental: 0.05 cc/50 g of Tiletimine and Zolazepam-mixed medicament (Zoletil) and Xylazine (Rompum) were mixed at a ratio of 1:1 and then administered to 20 rats by intramuscular injection, thereby anesthetizing the rats. A limbus periphery was divided into four portions, each of which was then subjected to 2 mm dissection at an interval of 90 degrees, and then, two radial conjunctival excisions were performed on upper dissection periphery. […] After surgical isolation of vein, the vein was lifted up by using 3 mm-width spatula to be spaced apart from the peripheral tissue, and then, was subjected to electric ablation while being careful for the peripheral tissue not to have any thermal damage or any mechanical damage due to contact. Intraocular pressure was consecutively measured three or more times by using Tonopen (Solan, Fla., USA), and only reliable intraocular pressure values within 5 percentile were recorded. […] Before the operation, and 3 days, and 1, 2, 4, and 8 weeks after the operation, intraocular pressure was measured, and the rats were sacrificed to extract eyes therefrom, which were then subjected to tissue examination and immunechemical staining with respect to Brn-3a and CD11b, and a reverse transcription polymerase chain reaction was used to measure CD11b value in retinal tissue. […]

normal white rat = experiment: Intraocular pressure change due to instillation in normal white rats (day-time and night-time); assay type: in vivo
Experimental: (§1) White rats were grouped as a physiological saline solution instillation group, an angiogenin (recombinant human angiogenin, R&D systems, USA) 50 μg/ml instillation group, an angiogenin fragment (angiogenin 108-122, SEQ ID NO: 1, BACHEM, USA) instillation group, and a latanoprost 50 μg/ml instillation group, and each group consisted of 6 rats, that is, 12 eyes. Instillation test was repeatedly performed on normal rats and glaucoma model rats. Ophthalmic agent was administered at 8 AM and 8 PM in an amount of 4 μl to compare day-time effects and night-time effects, and 1, 3, 6, 9, 12, and 24 hours after the instillation, intraocular pressure was measured.

[1] = test system: Schlemm's canal peripheral tissue in anterior chamber angle; experiment: H&E staining of Schlemm's canal peripheral tissue in anterior chamber angle of glaucoma model after instillation; assay type: in vivo, rat; conditions: after instillation compared to before instillation
[2] = test system: corneal chemical burn model; experiment: Corneal chemical burn model: corneal opacity and corneal neoangiogenesis on anterior ocular segment images; assay type: in vivo, rat
Experimental: Regarding 20 eyes of 20 rats, filter paper was cut to a round shape having a diameter of 4 mm and completely wet with NaOH, and then, placed on corneal and conjunctiva with upper corneal limbus therebetween for 6 seconds, and then, the eyes were washed. 10 eyes of the 10 rats were treated with angiogenin 10 μl four times a day at time intervals of 6 hours two days before test, and even after the NaOH injury, treated 4 times a day. The remaining 10 eyes were treated with physiological saline two days before the injury in the same manner as used with angiogenin. Angiogenin and physiological saline were all administered only up to 7 days after injuring.
(§2) Three days, and 1, 2, 4, and 8 weeks after injuring, corneal opacity and neoangiogenesis level were assessed in consideration of images of anterior ocular segment, and on the third day and the seventh day, the respective conjunctiva damaged parts were collected and then subjected to a reverse transcription polymerase chain reaction to assay expression of IL-1a, TGF-β, SDF-1, and caspase-3.
On the corneal neoangiogenesis image, the region where blood vessel was grown was divided in the wedge shape at intervals of 1 hour while the corneal peak was used as a reference, and an area thereof was calculated, and the area was calculated according to this equation: A=C/12×3.1416 [r^2−(r−l)^2]. (A: new vessel area, C: time occupied when divided by 12 hours, r: corneal […], and l: vascular grown length)

glaucoma white rats = experiment: Intraocular pressure change due to instillation in glaucoma white rats (day-time and night-time); assay type: in vivo, rat
Experimental: Male white rats were used to prepare an episcleral venous ablation glaucoma model. The rat was anesthetized and a limbus periphery was divided into four portions, each of which was then subjected to 2 mm dissection at an interval of 90 degrees, and then, two radial conjunctival excisions were performed on upper dissection periphery. […] Episcleral vein is distinguishable because it is located […] than extra ocular muscle, has relatively low fluidity and a relatively large diameter, contains darker blood in vessel, and is connected to peripheral venous plexus. After surgical isolation of vein, the vein was lifted up by using 3 mm-width wooden spatula to be spaced apart from the peripheral tissue, and then, was subjected to electric ablation while being careful for the peripheral tissue not to have any thermal injury or any mechanical injury due to the contact. After the operation, a chloramphenical ophthalmic agent was administered thereto. Intraocular pressure was consecutively measured three or more times by using Tonopen (Solan, Fla., USA), and only reliable intraocular pressure values within 5% or less were recorded. Only used were rats that had higher intraocular pressure than that before the operation by 5 mmHg or more when measured on the first day, the third day, one week and two weeks before and after operation.
Also, steroid-induced glaucoma model was prepared as follows: 1% prednisolone was instilled twice a day in an amount of 4 μl for 30 days, and only rats that had higher intraocular pressure by 5 mmHg or more before operation were used.
as §1

caspase-3 = experiment: Reverse transcription polymerase chain reaction on injured tissue of corneal chemical burn model, caspase-3; assay type: in vivo, rat; conditions: third day and seventh day after keratoconjunctival chemical injury
Experimental: as §2
Tissues obtained from chronic intraocular pressure increase model and corneal chemical burn model were frozen, and then cut into small parts by using a fine knife. The tissue parts were treated with 1 ml of TRI reagent (Molecular Research Center, Inc.) and then, tissue and cell were lysed by homogenizer. The respective implication cDNA […] 0.2 mM dNTP, 10×buffer, 10 pmols primer, and 0.2 U Taq polymerase were mixed to obtain a volume of 20 μl, and then, PCR thermal cycler (a machine for PCR) was used for reaction for 5 minutes at 95° C., 40 second at 94° C., 40 seconds at 48 to 64° C., 40 seconds (35 cycles) at 72° C., and 10 minutes at 72° C. The amplified polymerase chain reaction product was identified by 1% agarose gel electrophoresis. β actin was used as a positive control for the polymerase chain reaction, and relative expression morphs of a target gene with respect to β actin expression were compared. […]

[3] = from 2 weeks after the injury to 8 weeks

**Q.** Which results are given for “angiogenin: recombinant human angiogenin (R&D systems); 14.4 kDa single chain protein of 123 amino acids, a ribonuclease inducing angiogenesis”?
**A.** CD11b expression in retina (CD11b): significantly higher; time after instillation up to which significant intraocular pressure reduction was maintained (normal white rat; day-time instillation): up to 9 hours; time after instillation at which average intraocular pressure began to significantly decrease (normal white rat; day-time instillation, 50 μg/ml): 1 h; intraocular pressure reduction compared to the pre-instillation intraocular pressure (normal white rat; day-time instillation, 50 μg/ml 4 μl, maintained up to 9 hours after the instillation): −1.8±0.4 mmHg; time after instillation up to which significant intraocular pressure reduction was maintained (normal white rat; night-time instillation): up to 24 hours; intraocular pressure reduction compared to that before instillation (normal white rat; night-time instillation, 50 μg/ml, maintained up to 24 hours after the instillation): −1.5±0.4 mmHg; intraocular pressure reduction (in words) (normal white rat; night-time instillation, 1 hour after the instillation): significant intraocular pressure reduction; diameter and intercellular interval of Schlemm's canal [1]: increased; corneal opacity compared to the control [2, 3]: significantly low; corneal opacity grade (most of the group) [2, 3]: grade 1 or grade 2; corneal new vessel area ([2]; on the second week after injury): did not change; corneal opacity compared to the control ([2]; up to the seventh day after injury): no significant difference; time after instillation up to which significant intraocular pressure reduction effects were retained (glaucoma white rats; day-time instillation test): up to 6 hours; time after instillation up to which intraocular pressure reduction effects were retained (glaucoma white rats; night-time instillation): up to 12 hours; caspase-3 expression compared to the control (caspase-3): less expressed
